From patent publication US9856279B2 (AGIOS PHARMACEUTICALS, INC, priority 2011, dated 2018) come the findings set out here.

Some results are limits rather than exact numbers.

Sequence of IDH1 R132H (O75874 whole entry R132H): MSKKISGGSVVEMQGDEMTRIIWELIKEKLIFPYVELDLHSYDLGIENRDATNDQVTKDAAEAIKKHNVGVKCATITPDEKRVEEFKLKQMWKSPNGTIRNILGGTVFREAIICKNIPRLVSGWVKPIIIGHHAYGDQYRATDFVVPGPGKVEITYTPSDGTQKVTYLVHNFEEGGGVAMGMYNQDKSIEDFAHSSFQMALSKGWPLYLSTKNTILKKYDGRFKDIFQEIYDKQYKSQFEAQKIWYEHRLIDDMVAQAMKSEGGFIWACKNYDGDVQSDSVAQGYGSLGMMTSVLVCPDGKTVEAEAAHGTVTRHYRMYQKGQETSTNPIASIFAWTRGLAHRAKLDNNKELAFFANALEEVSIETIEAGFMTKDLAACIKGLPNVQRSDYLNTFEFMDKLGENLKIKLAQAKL

The first test concerns the target IDH1 R132H (Homo sapiens, UniProt O75874, R132H). In words: Assay for IDH1 R132H inhibitors (NADPH/aKG, resazurin detection). The class given is biochemical. The note with it: Table 3; enzyme assay, 50 minutes at room temperature; read-out: IC50 (IDH1 R132H Inhibition). Summed up: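 Read-out is resorufin fluorescence (Ex544/Em590) 5 min after adding a 30 μM resazurin detection mix. Before that, mutant enzyme (0.2 μg/ml in its mix) ran 50 min at room temperature with compound, 8 uM NADPH and 2 mM aKG (mix levels) in Tris pH 7.5 with NaCl, MgCl2, BSA.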
A word on the IC50: it is the concentration needed to halve the response being measured. `COCCC(=O)N1CCN(c2nc(C(C)C)c(Cc3ccccc3)cc2C#N)C[C@H]1C` [Compound 239, (R)-5-benzyl-6-isopropyl-2-(4-(3-methoxypropanoyl)-3-methylpiperazin-1-yl)nicotinonitrile]: the IC50 fell in the range of 1000 to 5000 nM. Turning to `Cc1ccc(-c2cc(C#N)c(N3CCN(C(=O)c4ccco4)[C@H](C)C3)nc2C(C)C)cc1` [Compound 180, (R)-2-(4-(furan-2-carbonyl)-3-methylpiperazin-1-yl)-6-isopropyl-5-p-tolylnicotinonitrile], the IC50 fell in the range of 1000 to 5000 nM. Still for that read-out and setting: with `COCCC(=O)N1CCN(c2nc(C3CC3)c(-c3ccccc3F)cc2C#N)C[C@H]1C` [Compound 249, (R)-6-cyclopropyl-5-(2-fluorophenyl)-2-(4-(3-methoxypropanoyl)-3-methylpiperazin-1-yl)nicotinonitrile] the figure was at most 1000 nM. Still for that read-out and setting: with `COCCC(=O)N1CCN(c2nc(C(C)C)c(-c3cncnc3)cc2C#N)C[C@H]1C` [Compound 210, (R)-6-isopropyl-2-(4-(3-methoxypropanoyl)-3-methylpiperazin-1-yl)-5-0γ(pyrimidin-5-yl)nicotinonitrile] the figure was 5000 to 15000 nM; with `CC1CN(c2nc(-c3ccccc3)c(-c3ccccc3)cc2C#N)CCN1C(=O)c1ccoc1` (stereo not shown) [Compound 118, 2-(4-(furan-3-carbonyl)-3-methylpiperazin-1-yl)-5,6-diphenylnicotinonitrile], 5000 to 15000 nM; with `CC(C)c1nc(N2C[C@@H](C)N(C(=O)c3ccoc3)[C@@H](C)C2)c(C#N)cc1-c1ccccc1` [Compound 141, 2-((3S,5R)-4-(furan-3-carbonyl)-3,5-dimethylpiperazin-1-yl)-6-isopropyl-5-phenylnicotinonitrile], 5000 to 15000 nM. Regarding `COc1ccccc1-c1cc(C#N)c(N2CCN(C(=O)c3ccco3)[C@H](C)C2)nc1C(C)C` [Compound 176, (R)-2-(4-(furan-2-carbonyl)-3-methylpiperazin-1-yl)-6-isopropyl-5-(2-methoxyphenyl)nicotinonitrile], the IC50 is 1000 to 5000 nM. As to `COc1ccccc1-c1cc(C(C)C)nc(N2CCN(C(=O)c3ccoc3)[C@H](C)C2)c1C#N` [Compound 148, (R)-2-(4-(furan-3-carbonyl)-3-methylpiperazin-1-yl)-6-isopropyl-4-(2-methoxyphenyl)nicotinonitrile], the IC50 lay within 1000 to 5000 nM.

For the compound `Cc1occc1C(=O)N1CCN(c2nc(C(C)C)c(-c3ccoc3)cc2C#N)C[C@H]1C` [Compound 203, (R)-5-(furan-3-yl)-6-isopropyl-2-(3-methyl-4-(2-methylfuran-3-carbonyl)piperazin-1-yl)nicotinonitrile], the IC50 is 1000 to 5000 nM. Same read-out and setting: with `CC(C)c1nc(N2CCN(C(=O)Cc3cccs3)[C@H](C)C2)c(C#N)cc1-c1ccc(C(F)(F)F)cc1` [Compound 188, (R)-6-isopropyl-2-(3-methyl-4-(2-(thiophen-2-yl)acetyl)piperazin-1-yl)-5-(4-(trifluoromethyl)phenyl)nicotinonitrile] the figure was 1000 to 5000 nM.

Still in this test, the particulars now being: enzyme assay of Example 12; read-out: IDH1R132H IC50.
`Cc1c(C#N)c(N2CCN(C(=O)C3CC3)[C@H](C3CC3)C2)nc(C2CC2)c1-c1cn[nH]c1` [Compound 478, (R)-2-(4-(cyclopropanecarbonyl)-3-cyclopropylpiperazin-1-yl)-6-cyclopropyl-4-methyl-5-(1H-pyrazol-4-yl)nicotinonitrile]: the IC50 was 500 to 1000 nM. For `COCCC(=O)N1CCN(c2nc(C3CC3)c(-c3ccc(F)cc3)c(COC)c2C#N)C[C@H]1C` [Compound 298, (R)-6-cyclopropyl-5-(4-fluorophenyl)-4-(methoxymethyl)-2-(4-(3-methoxypropanoyl)-3-methylpiperazin-1-yl)nicotinonitrile], the IC50 lay within 500 to 1000 nM. Consider `N#Cc1cc(-c2cccc3nccnc23)c(C2CC2)nc1N1CCN(C(=O)C2CC2)[C@H](C2CC2)C1` [Compound 531, (R)-2-(4-(cyclopropanecarbonyl)-3-cyclopropylpiperazin-1-yl)-6-cyclopropyl-5-(quinoxalin-5-yl)nicotinonitrile], for which the IC50 was below 500 nM. Still for that read-out and setting: with `CCOC(=O)[C@@H]1C[C@H]1C(=O)N1CCN(c2nc(C3CC3)c(-c3cccc4cnccc34)cc2C#N)C[C@H]1C` [Compound 435, (1R,2R)-ethyl 2-((R)-4-(3-cyano-6-cyclopropyl-5-(isoquinolin-5-yl)pyridin-2-yl)-2-methylpiperazine-1-carbonyl)cyclopropanecarboxylate] the figure was 500 to 1000 nM. Consider `C=Cc1ccnc(Nc2cc(C#N)c(N3CCN(C(=O)C[C@H]4CCCO4)[C@H](C4CC4)C3)nc2C2CC2)c1` [Compound 828], for which the IC50 was below 500 nM. For the compound `N#Cc1cc(-c2cccc3cnccc23)c(C2CC2)nc1N1CCN(C(=O)C2CC2)CC(F)C1` (stereo not shown) [Compound 477, 2-(4-(cyclopropanecarbonyl)-6-fluoro-1,4-diazepan-1-yl)-6-cyclopropyl-5-(isoquinolin-5-yl)nicotinonitrile], the IC50 was 500 to 1000 nM. In the case of `COCCC(=O)N1CCN(c2nc(C3CC3)c(-c3ccc(C(=O)N4CCCC4)cc3)c(C)c2C#N)C[C@H]1C` [Compound 333, (R)-6-cyclopropyl-2-[4-(3-methoxy-propionyl)-3-methyl-piperazin-1-yl]-4-methyl-5-[4-(pyrrolidine-1-carbonyl)-phenyl]-nicotinonitrile], the IC50 is below 500 nM. For `COCCC(=O)N1CCN(c2nc(C3CC3)c(-c3cccc4c(O)ncnc34)cc2C#N)C[C@H]1C` [Compound 430], the IC50 lay in the range of 1000 to 10000 nM. As to `N#CCn1cc(-c2cc(C#N)c(N3CCN(C(=O)C4CC4)[C@H](C4CC4)C3)nc2C2CC2)cn1` [Compound 486, (R)-5-(1-(cyanomethyl)-1H-pyrazol-4-yl)-2-(4-(cyclopropanecarbonyl)-3-cyclopropylpiperazin-1-yl)-6-cyclopropylnicotinonitrile], the IC50 lay in the range of 500 to 1000 nM. For the compound `COCCC(=O)N1CCN(c2nc(C3CC3)c(Nc3cnc4ccccc4c3)cc2C#N)C[C@H]1C` [Compound 339, (R)-6-cyclopropyl-2-(4-(3-methoxypropanoyl)-3-methylpiperazin-1-yl)-5-(quinolin-3-ylamino)nicotinonitrile], the IC50 lay within 500 to 1000 nM.

Take `COCCC(=O)N1CCN(c2nc(C3CC3)c(-c3cccc(CC(=O)OC)c3)cc2C#N)C[C@H]1C` [Compound 291, (R)-methyl 2-(3-(5-cyano-2-cyclopropyl-6-(4-(3-methoxypropanoyl)-3-methylpiperazin-1-yl)pyridin-3-yl)phenyl)acetate]: the IC50 lay within 500 to 1000 nM. With `COCCC(=O)N1CCN(c2nc(C3CC3)c(-c3c(C)cccc3C)cc2C#N)C[C@H]1C` [Compound 357, (R)-6-cyclopropyl-5-(2,6-dimethyl-phenyl)-2-[4-(3-methoxy-propionyl)-3-methyl-piperazin-1-yl]-nicotinonitrile], the IC50 was 500 to 1000 nM.

Take `C=Cc1ccnc(Nc2cc(C#N)c(N3CCN(C(=O)/C=C/CCO)[C@H](C(C)C)C3)nc2C2CC2)c1` [Compound 791, (R,E)-6-cyclopropyl-2-(4-(5-hydroxypent-2-enoyl)-3-isopropylpiperazin-1-yl)-5-((4-vinylpyridin-2-yl)amino)nicotinonitrile]: the concentration for half-maximal inhibition (IC50) is below 500 nM. With `COCCC(=O)N1CCN(c2nc(C3CC3)c(-c3ccc(C#N)nc3)cc2C#N)C[C@H]1C` [Compound 584, (R)-2-cyclopropyl-6-(4-(3-methoxypropanoyl)-3-methylpiperazin-1-yl)-3,3′-bipyridine-5,6′-dicarbonitrile], the IC50 is 500 to 1000 nM. Turning to `Cc1nccc2c(-c3cc(C#N)c(N4CCN(C(=O)C5CC5)[C@H](C5CC5)C4)nc3C3CC3)cccc12` [Compound 497, (R)-2-(4-(cyclopropanecarbonyl)-3-cyclopropylpiperazin-1-yl)-6-cyclopropyl-5-(1-methylisoquinolin-5-yl)nicotinonitrile], the IC50 was below 500 nM. As to `COCCC(=O)N1CCN(c2nc(C3CC3)c(N(c3ccnc(C#N)c3)c3ccnc(C#N)c3)cc2C#N)C[C@H]1C` [Compound 659, (R)-4,4′-(5-cyano-2-cyclopropyl-6-(4-(3-methoxypropanoyl)-3-methylpiperazin-1-yl)pyridin-3-ylazanediyl)dipicolinonitrile], the IC50 was below 500 nM.

Regarding `COCCC(=O)N1CCN(c2nc(C3CC3)c(Nc3ccnc(C(=O)OC)c3)cc2C#N)C[C@H]1C` [Compound 683, (R)-methyl 4-((5-cyano-2-cyclopropyl-6-(4-(3-methoxypropanoyl)-3-methylpiperazin-1-yl)pyridin-3-yl)amino)picolinate], the IC50 is below 500 nM. With `COCCC(=O)N1CCN(c2nc(C3CC3)c(-c3ccc(N4CCNCC4)nc3)cc2C#N)C[C@H]1C` [Compound 396, (R)-2-cyclopropyl-6-[4-(3-methoxy-propionyl)-3-methyl-piperazin-1-yl]-6′-piperazin-1-yl-[3,3′]bipyridinyl-5-carbonitrile], the IC50 is below 500 nM. For the compound `COCCC(=O)N1CCN(c2nc(C3CC3)c(-c3ccc4cc[nH]c4c3)cc2C#N)C[C@H]1C` [Compound 289, (R)-6-cyclopropyl-5-(1H-indol-6-yl)-2-(4-(3-methoxypropanoyl)-3-methylpiperazin-1-yl)nicotinonitrile], the IC50 was below 500 nM. As for `COCCC(=O)N1CCN(c2nc(C3CC3)c(N(C)c3ccnc(Cl)c3)cc2C#N)C[C@H]1C` [Compound 699, (R)-5-((2-chloropyridin-4-yl)(methyl)amino)-6-cyclopropyl-2-(4-(3-methoxypropanoyl)-3-methylpiperazin-1-yl)nicotinonitrile], the 50% inhibitory concentration (IC50) is below 500 nM. On to `COCCC(=O)N1CCN(c2nc(C3CC3)c(N3CCN(C(=O)c4ccccc4)CC3)cc2C#N)C[C@H]1C` [Compound 379, (R)-5-(4-benzoylpiperazin-1-yl)-6-cyclopropyl-2-(4-(3-methoxypropanoyl)-3-methylpiperazin-1-yl)nicotinonitrile], for which the IC50 lay within 500 to 1000 nM.
